The values that follow come from PubChem BioAssay AID2060504 (Molecular Pharmacology Branch, DTP, NCI, 2025).

The subject of this experiment is 636577-100-R-J1-PDC complex spheroid viability. The experiment is described as follows: Anticancer human tumor 636577-100-R-J1-PDC patient-derived endometrial adenocarcinoma cell line growth inhibition [GQUAD]. The following applies: for viability, T/C: stronger effect = lower value. An excerpt: DNA G-quadruplex Stabilizer Agents in Combinations in Complex Spheroids
A high-throughput screen of multi-cell type tumor spheroids was designed to identify active combinations of DNA G-quadruplex stabilizer agents and targeted small molecules. Complex spheroids include a stromal component modeled by human endothelial cells (HUVEC) and fibroblasts modeled by human mesenchymal stem cells (MSCs). The concentration ranges selected for each drug and investigational agent were based upon clinically achievable concentrations if the clinical Cmax of the agent was known.
Compounds. The drugs and investigational agents: pidnarulex (CX-5461; NSC782164), APTO-253 (NSC789042), BRACO-19 (NSC847499), peposertib (NSC802822), ceralasertib (NSC780249), elimusertib (NSC800525), camonsertib (NSC841442), AZD-1390 (NSC803789), olaparib (NSC753686), talazoparib (NSC767125), ART-558 (NSC835418), sotorasib (NSC818433), MRTX-1133 (NSC836407), SN-38 (NSC673596), topotecan (NSC609699), etoposide (NSC141540), doxorubicin (NSC123127), gemcitabine (NSC613327), 5-fluorouracil (NSC19893), paclitaxel (NSC125973), vemurafenib (NSC761431), panobinostat (NSC761190), R-306465 (JNJ-16241199; NSC773264), adavosertib (NSC754352), TP-3654 (NSC805149), carboplatin (NSC241240), KSQ-4279 (NSC840948), and staurosporine (NSC755774) were obtained from the National Cancer Institute (NCI) Developmental Therapeutics Program Chemical Repository (34). The FDA-approved anticancer drug set is available from the NCI Developmental Therapeutics Program. […] The stock solutions were prepared in dimethyl sulfoxide (DMSO, Sigma-Aldrich, St. Louis, MO, cat. D2650) at 800-fold the tested concentration and stored at -70 degrees C prior to their use. All drugs and investigational agents were tested over a range starting from a high concentration at or near the clinical Cmax and decreasing in half-log increments. If the clinical Cmax for an agent had not been determined, the highest concentration tested was 10 microM.
2.3 Cell Culture. All cells were maintained in an incubator at 37 degrees C and 5% CO2 with 95% humidity. The PDC lines were cultured according to standard operating procedures established by the NCI PDMR. All PDCs were thawed and cultured in Matrigel-coated flasks prepared with a working solution of 1X Ham's F-12 nutrient mix, without supplementation (Invitrogen, cat. 11765054), 100 U/mL penicillin-streptomycin (Invitrogen, cat. 15140122), and 2.5% Matrigel (Corning Inc., cat. 354248) for the first three passages. The 857933-349-R-J2-PDC line was cultured in 6C/Colon 1B media, which includes advanced DMEM/F-12 (Thermo Fisher Scientific, cat. 12634028), 10 mM HEPES (Thermo Fisher Scientific, cat. 15630080), 1X GlutaMAX supplement (Thermo Fisher Scientific, cat. 35050061), 0.1 mg/mL primocin (InvivoGen, cat. ant-pm-2), 10% defined fetal bovine serum, heat inactivated (HyClone Laboratories Inc., cat. SH30070.03HI), 50% L-WRN conditioned media (ATCC, cat. CRL-3276), 1.25 mM N-Acetyl-L-cysteine (Sigma-Aldrich, cat. A9165), 10 mM nicotinamide (Sigma-Aldrich, cat. N0636), 1X B-27 supplement (Thermo Fisher Scientific, cat. 17504044), 1X N-2 supplement (Thermo Fisher Scientific, cat. 17502048), 10 microM Y-27632 dihydrochloride (Tocris Bioscience, cat. 1254), and 50 ng/mL human EGF recombinant protein (Thermo Fisher Scientific, cat. PHG0311). The 485176-168-R4-J1-PDC line was cultured in Panc media, which includes all 6C/Colon 1B media components plus 100 ng/mL human FGF-10 (Thermo Fisher Scientific, cat. 100-26), 500 nM SB-431542 (Selleckchem, cat. S1067), and gastrin (Tocris, cat. 3006).
[…]

pIC50: −log10 of the molar value. Values joined by “and” are separate entries in the source; they are usually repeats but may differ in a detail not shown here. Equal entries are not always repeated.

Usually pIC50 stands for the IC50 on a negative log10 scale, so that one unit is a factor of ten. In general, viability, T/C refers to the ratio of treated to control. What is called IC50 is the midpoint of a concentration-inhibition curve.
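Further: viability read after seven days of drug exposure.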
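Wherever viability, T/C is given: luminescence signal used as a proxy for viable cells; 100% = DMSO vehicle control wells.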

For the compound `Cc1cccc(N(C)C(=O)C2C(O)CCN2c2nc(C)cc(C(F)(F)F)c2C#N)c1` (stereo not drawn) + Cc1cnc(CNC(=O)c2c(=O)c3ccc(N4CCCN(C)CC4)nc3n3c2sc2ccccc23)cn1, the pIC50 runs as follows: (curve of first compound, second compound 0.0316 µM) > 7.50; (curve of first compound, second compound 0.1 µM) > 7.50; (curve of first compound, second compound 0.316 µM) > 7.50; (curve of first compound, second compound 1 µM) > 7.50; (curve of first compound, second compound 3.16 µM) > 7.50; (curve of first compound, second compound 10 µM) > 7.50. Moreover, the viability, T/C is, setting by setting: (second compound 0.0316 µM, first compound 0.0316 µM) 52.7%; (second compound 0.0316 µM, first compound 0.1 µM) 43.5%; (second compound 0.0316 µM, first compound 0.316 µM) 35%; (second compound 0.0316 µM, first compound 1 µM) 39.7%; (second compound 0.0316 µM, first compound 3.16 µM) 40.5%; (second compound 0.0316 µM, first compound 10 µM) 43.9%. The viability, T/C was 29.2% (second compound 0.1 µM, first compound 0.0316 µM); 22.6% (second compound 0.1 µM, first compound 0.1 µM); 25.3% (second compound 0.1 µM, first compound 0.316 µM); 23.2% (second compound 0.1 µM, first compound 1 µM); 25.7% (second compound 0.1 µM, first compound 3.16 µM); 24.6% (second compound 0.1 µM, first compound 10 µM). In addition, the viability, T/C is, setting by setting: (second compound 0.316 µM, first compound 0.0316 µM) 21.8%; (second compound 0.316 µM, first compound 0.1 µM) 18.1%; (second compound 0.316 µM, first compound 0.316 µM) 21.6%; (second compound 0.316 µM, first compound 1 µM) 21.6%; (second compound 0.316 µM, first compound 3.16 µM) 24.2%; (second compound 0.316 µM, first compound 10 µM) 22.7%. In addition, the viability, T/C was 19.1% (second compound 1 µM, first compound 0.0316 µM); 19.7% (second compound 1 µM, first compound 0.1 µM); 19.7% (second compound 1 µM, first compound 0.316 µM); 19.2% (second compound 1 µM, first compound 1 µM); 20.8% (second compound 1 µM, first compound 3.16 µM); 25.2% (second compound 1 µM, first compound 10 µM). The viability, T/C (second compound 3.16 µM, first compound 0.0316 µM) is 12.5%; the viability, T/C (second compound 3.16 µM, first compound 0.1 µM) is 19.6%; the viability, T/C (second compound 3.16 µM, first compound 0.316 µM) is 19.4%; the viability, T/C (second compound 3.16 µM, first compound 1 µM) is 21%; the viability, T/C (second compound 3.16 µM, first compound 3.16 µM) was 22.4%; the viability, T/C (second compound 3.16 µM, first compound 10 µM) was 20.7%. The viability, T/C reads like this: (second compound 10 µM, first compound 0.0316 µM) 22.3%; (second compound 10 µM, first compound 0.1 µM) 17.8%; (second compound 10 µM, first compound 0.316 µM) 21%; (second compound 10 µM, first compound 1 µM) 17.9%; (second compound 10 µM, first compound 3.16 µM) 22.9%; (second compound 10 µM, first compound 10 µM) 20.8%.

Take `CN(C)c1ccc(Nc2c3ccc(NC(=O)CCN4CCCC4)cc3nc3cc(NC(=O)CCN4CCCC4)ccc23)cc1`: the viability, T/C by setting is: (compound 0.0316 µM) 104% [middle of 12 runs]; (compound 1 µM) 82.9% [middle of 12 runs]; (compound 3.16 µM) 40.7% [middle of 12 runs]; (compound 10 µM) 6.05% [middle of 12 runs]. Also, the IC50 (compound alone, run of 03/26/2024) is 2.41 µM [middle of 11 runs].

As for `O=c1[nH]cc(F)c(=O)[nH]1`, the viability, T/C (compound 0.0316 µM) is 102% and 99.7%; the viability, T/C (compound 0.1 µM) is 85% and 68.9%; the viability, T/C (compound 0.316 µM) is 101% and 89.5%; the viability, T/C (compound 1 µM) was 76.2% and 91.4%; the viability, T/C (compound 3.16 µM) is 44.2% and 71%; the viability, T/C (compound 10 µM) was 24.7% and 28.6%. For the same compound, under “curve of compound”, the pIC50 is 5.60 and 5.25.

Regarding `Cc1[nH]c2ccccc2c1CCNCc1ccc(/C=C/C(=O)NO)cc1`, the viability, T/C is, setting by setting: (compound 0.000999 µM) 80% and 86.3% and 79%; (compound 0.00316 µM) 57.6% and 53.8% and 75.6%; (compound 0.00999 µM) 34.1% and 38.9% and 51.3%; (compound 0.0316 µM) 15.3% and 17.2% and 16.4%; (compound 0.0999 µM) 6.66% and 8% and 7.02%; (compound 0.316 µM) 9.32% and 8.7% and 9.38%. The negative logarithm of the IC50 (pIC50) (curve of compound) is 8.33 and 8.36 and 7.98.

As for `C=CC(=O)N1CCN(c2nc(=O)n(-c3c(C)ccnc3C(C)C)c3nc(-c4c(O)cccc4F)c(F)cc23)C(C)C1` (stereo not drawn), the viability, T/C (compound 0.0316 µM) was 103% and 110%; the viability, T/C (compound 0.1 µM) was 55.1% and 117%; the viability, T/C (compound 0.316 µM) is 105%; the viability, T/C (compound 1 µM) is 107% and 90.3%; the viability, T/C (compound 3.16 µM) is 72.6% and 85.3%; the viability, T/C (compound 10 µM) is 70.6% and 66.2%. For the same compound, the pIC50 (curve of compound) is < 5.00.
